Experimental data: patent US20260285857A1, “BICYCLIC AND HETEROCYCLIC AMIDE COMPOUNDS” (priority 2024, published 2026)

tested on: immunoglobulin light chain protein WIL-FL T46L; test: Differential scanning fluorimetry (thermal shift) assay; assay type: binding; details: Table A; temperature shift [Tm]compound-[Tm]vehicle; recombinant WIL-FL T46L

Compound | DSF
Cc1cc(N2CC[C@](C)(c3ccccc3)C2)cn2nc(C(=O)N3CCOC4(C3)CN(c3cccc(C(=O)O)n3)C4)nc12 [Compound 286] | ***** (>2.5° C.=*****)
Cc1cc(N2CC[C@](C)(c3ccccc3)C2)cn2nc(C(=O)N3CCOCC34CN(c3cccc(C(=O)O)n3)C4)nc12 [Compound 259] | ***** (>2.5° C.=*****)
Cc1cc(N2CC[C@](C)(c3ccccc3)C2)cn2nc(C34CC(=O)NC(N)(CO3)C4)nc12 (some centres unmarked) [Compound 47] | ***** (>2.5° C.=*****)
Cc1cc(N2CC[C@@](CO)(c3ccccc3)C2)cn2nc(C(=O)N3CC[C@@]4(CCN(c5cccc(C(=O)O)n5)C4)C3)nc12 [Compound 331] | ** (>0.5-1 °C =**)
Cc1cc(N2CC[C@](C)(c3ccccc3)C2)cn2nc(C(=O)NC3CC(=O)N(c4ccnc(C(=O)O)c4)C3)nc12 (some centres unmarked) [Compound 243] | ***** (>2.5° C.=*****)
COC(=O)c1cccc(-c2nc3n(n2)CCN(C(=O)c2nc4c(C)cc(N5CC[C@](C)(c6ccccc6)C5)cn4n2)C3)n1 [Compound 403] | ***** (>2.5° C.=*****)
Cc1cc(N2CC[C@](C)(c3ccccc3)C2)cn2nc(C(=O)NC3CC4(C3)CC(N3C[C@H](F)[C@@H](F)C3)C4)nc12 (some centres unmarked) [Compound 363] | ***** (>2.5° C.=*****)
Cc1cc(N2CC[C@](C)(c3ccccc3)C2)cn2nc(C(=O)N3CC[C@@](C)(C(=O)O)C3)nc12 [Compound 126] | ***** (>2.5° C.=*****)
Cc1cc(N2CC[C@](C)(c3ncco3)C2)cn2nc(C(=O)N3CC[C@@]4(CCN(c5cccc(C(=O)O)n5)C4)C3)nc12 [Compound 21, 6-((R)-7-(8-methyl-6-((S)-3-methyl-3-(oxazol-2-yl)pyrrolidin-1-yl)-[1,2,4]triazolo[1,5-a]pyridine-2-carbonyl)-2,7-diazaspiro[4.4]nonan-2-yl)picolinic acid] | *** (>1-1.5° C.=***)
Cc1cc(N2CC[C@](C)(c3ccccc3)C2)cn2nc(C(=O)N3CCC4(C3)OCC4N3CC4C(C3)C4C(=O)O)nc12 (some centres unmarked) [Compound 375] | ***** (>2.5° C.=*****)
Cc1cc(N2CC[C@](C)(c3ccccc3)C2)cn2nc(C(=O)NC34COC(C(=O)O)(C3)C4)nc12 [Compound 172] | ***** (>2.5° C.=*****)
Cc1noc(C2(C)CCN(c3cc(C)c4nc(C(=O)N5C[C@@H]6CN(c7cccc(C(=O)O)n7)C[C@@H]6C5)nn4c3)C2)n1 (some centres unmarked) [Compound 300] | *** (>1-1.5° C.=***)
Cc1cc(N2CC[C@](C)(c3ccccc3)C2)cn2nc(C34CC(CO3)C4Cc3ncnn3C)nc12 (some centres unmarked) [Compound 86] | ***** (>2.5° C.=*****)
Cc1cc(N2CC[C@](C)(c3ccccc3)C2)cn2nc(C(=O)N3CC4(O)CC3C4)nc12 [Compound 146] | ***** (>2.5° C.=*****)
Cc1cc(N2CCC(C)(c3ccccc3)C2=O)cn2nc(C(=O)N3CC[C@@]4(CCN(c5cccc(C(=O)O)n5)C4)C3)nc12 (some centres unmarked) [Compound 386] | ** (>0.5-1 °C =**)
CCC(=O)NCC1C2COC1(c1nc3c(C)cc(N4CC[C@](C)(c5ccccc5)C4)cn3n1)C2 (some centres unmarked) [Compound 81] | ***** (>2.5° C.=*****)
Cc1cc(N2CC[C@](C)(c3ccccc3)C2)cn2nc(C(=O)N3CC45CN(c6cccc(C(=O)O)n6)CC4(C3)C5)nc12 (some centres unmarked) [Compound 281] | ***** (>2.5° C.=*****)
Cc1cc(N2CC[C@](C)(c3cccc(F)c3)C2)cn2nc(C(=O)NC3CC4(C3)CC(N3CC5C(C3)C5C(=O)O)C4)nc12 (some centres unmarked) [Compound 384] | ***** (>2.5° C.=*****)
CCOC(=O)C1C2CN(C3CC4(CC(NC(=O)c5nc6c(C)cc(N7CC[C@](C)(c8ccccc8)C7)cn6n5)C4)C3)CC21 (some centres unmarked) [Compound 378] | ***** (>2.5° C.=*****)
Cc1cc(N2CC[C@](C)(c3ccccc3)C2)cn2nc(C34CCC(NC(=O)CC(C)(C)O)(C3)O4)nc12 (some centres unmarked) [Compound 53] | ***** (>2.5° C.=*****)
Cc1cc(N2CC[C@](C)(c3ccccc3)C2)cn2nc(C(=O)N3CCOC4(CCN(c5cccc(C(=O)O)n5)C4)C3)nc12 (some centres unmarked) [Compound 242] | ***** (>2.5° C.=*****)
Cc1cc(N2CC[C@](C)(c3ccccc3)C2)cn2nc(C(=O)NC3CCS(=O)(=O)C3)nc12 (some centres unmarked) [Compound 109] | ***** (>2.5° C.=*****)
Cc1cc(N2CC[C@](C)(c3ccccc3)C2)cn2nc(C34CC(O)(CO3)C4)nc12 [Compound 381] | ***** (>2.5° C.=*****)
Cc1cc(N2CC[C@](C)(c3ccccc3)C2)cn2nc(C(=O)NC3CNC(C)(C(=O)O)C3)nc12 (some centres unmarked) [Compound 179] | ***** (>2.5° C.=*****)
Cc1cc(N2CC[C@](c3ccccc3)(C(F)F)C2)cn2nc(C(=O)NCC(C)(C)O)nc12 [Compound 28, 6-[(3R)-3-(difluoromethyl)-3-phenyl-pyrrolidin-1-yl]-N-(2-hydroxy-2-methyl-propyl)-8-methyl-[1,2,4]triazolo[1,5-a]pyridine-2-carboxamide] | **** (>1.5-2.5° C.=****)
Cc1cc(N2CC3(CC[C@@H]3c3ccccc3)C2)cn2nc(C(=O)N3CC[C@@]4(CCN(c5cccc(C(=O)[O-])n5)C4)C3)nc12.[Li+] [Compound 24B, lithium 6-((R)-7-(8-methyl-6-((R)-5-phenyl-2-azaspiro[3.3]heptan-2-yl)-[1,2,4]triazolo[1,5-a]pyridine-2-carbonyl)-2,7-diazaspiro[4.4]nonan-2-yl)picolinate] | ***** (>2.5° C.=*****)

same assay, conditions: Table B; temperature shift [Tm]compound-[Tm]vehicle; recombinant WIL-FL T46L

Compound | DSF
CCS(=O)(=O)Nc1nc(C2C3(CO)COC2(c2nc4c(C)cc(N5CC[C@](C)(c6ccccc6)C5)cn4n2)C3)n[nH]1 (stereo partly drawn) [Compound 573, N-[3-[4-(hydroxymethyl)-1-[8-methyl-6-[(3R)-3-methyl-3-phenyl-pyrrolidin-1-yl]-[1,2,4]triazolo[1,5-a]pyridin-2-yl]-2-oxabicyclo[2.1.1]hexan-5-yl]-1H-1,2,4-triazol-5-yl]ethanesulfonamide] | ***** (>2.5° C.=*****)
Cc1cc(N2CC[C@](C)(c3cccc(Cl)c3)C2)cn2nc(C(=O)N3CC[C@@]4(CCN(c5cccc(C(=O)O)n5)C4)C3)nc12 [Compound 747] | ***** (>2.5° C.=*****)
Cc1cc(N2CC[C@](C)(c3cccc(F)c3)C2)cn2nc(C(=O)N3CC[C@@]4(CCN(c5cccc(C(=O)O)n5)C4)C3)nc12 [Compound 755] | ***** (>2.5° C.=*****)
CNC(=O)c1nc2c(C(F)F)cc(N3CC[C@](C)(c4ccccc4)C3)cn2n1 [Compound 760, (R)-8-(difluoromethyl)-N-methyl-6-(3-methyl-3-phenylpyrrolidin-1-yl)-[1,2,4]triazolo[1,5-a]pyridine-2-carboxamide] | ***** (>2.5° C.=*****)
Cc1cc(N2CC[C@](C)(c3ccccc3)C2)cn2nc(C(=O)NC3CC4(C3)CC(N3CC(C(=O)O)C3)C4)nc12 (some centres unmarked) [Compound 600] | ***** (>2.5° C.=*****)
Cc1nc(C2C3(CNC(=O)CC(C)(C)C(=O)O)COC2(c2nc4c(C)cc(N5CC[C@](C)(c6ccccc6)C5)cn4n2)C3)n[nH]1 (some centres unmarked) [Compound 586] | ***** (>2.5° C.=*****)
Cc1cc(N2CC[C@](C)(c3cccc(F)c3)C2)cn2nc(C34CC(CO3)C4N3CC4(CC4)NC3=O)nc12 (stereo partly drawn) [Compound 507, 6-(1-(6-((R)-3-(3-fluorophenyl)-3-methylpyrrolidin-1-yl)-8-methyl-[1,2,4]triazolo[1,5-a]pyridin-2-yl)-2-oxabicyclo[2.1.1]hexan-5-yl)-4,6-diazaspiro[2.4]heptan-5-one] | ***** (>2.5° C.=*****)
Cc1cc(N2CC[C@](C)(c3ccccc3)C2)cn2nc(C(=O)N3CC[C@@]4(CCN(C(=O)[C@@H]5CC[C@H](C(=O)O)C5)C4)C3)nc12 [Compound 708, (1S,3R)-3-[(5R)-7-[8-methyl-6-[(3R)-3-methyl-3-phenyl-pyrrolidin-1-yl]-[1,2,4]triazolo[1,5-a]pyridine-2-carbonyl]-2,7-diazaspiro[4.4]nonane-2-carbonyl]cyclopentanecarboxylic acid] | ***** (>2.5° C.=*****)
Cc1cc(N2CC[C@](C)(c3ccccc3)C2)cn2nc(C(=O)N3CC[C@@]4(CCN(C5CCCC(C(=O)O)C5)C4)C3)nc12 (some centres unmarked) [Compound 720] | ***** (>2.5° C.=*****)
Cc1cc(N2CC[C@@](C)(n3ccc(C(F)(F)F)n3)C2)cn2nc(C(=O)N3CC[C@@]4(CCN(c5cccc(C(=O)O)n5)C4)C3)nc12 [Compound 741] | ***** (>2.5° C.=*****)
Cc1cc(N2CC[C@@](C)(c3cccc(F)c3)C2)cn2nc(C(=O)N3CC[C@@]4(CCN(c5cccc(C(=O)O)n5)C4)C3)nc12 [Compound 763, 6-((R)-7-(6-((S)-3-(3-fluorophenyl)-3-methylpyrrolidin-1-yl)-8-methyl-[1,2,4]triazolo[1,5-a]pyridine-2-carbonyl)-2,7-diazaspiro[4.4]nonan-2-yl)picolinic acid] | ***** (>2.5° C.=*****)
CC(=O)N[C@@]12CO[C@@](c3nc4c(C)cc(N5CC[C@](C)(c6ccccc6)C5)cn4n3)(C1)[C@@H]2CO [Compound 544, N-((1S,4S,5S)-5-(hydroxymethyl)-1-(8-methyl-6-((R)-3-methyl-3-phenylpyrrolidin-1-yl)-[1,2,4]triazolo[1,5-a]pyridin-2-yl)-2-oxabicyclo[2.1.1]hexan-4-yl)acetamide] | ***** (>2.5° C.=*****)
Cc1cc(N2CC[C@](C)(c3ccccc3)C2)cn2nc(C34CC(CO3)C4N3CC4(COC4)NC3=O)nc12 (stereo partly drawn) [Compound 509, 7-(1-(8-methyl-6-((R)-3-methyl-3-phenylpyrrolidin-1-yl)-[1,2,4]triazolo[1,5-a]pyridin-2-yl)-2-oxabicyclo[2.1.1]hexan-5-yl)-2-oxa-5,7-diazaspiro[3.4]octan-6-one] | ***** (>2.5° C.=*****)
Cc1cc(N2CC[C@](C)(c3ccccc3)C2)cn2nc(C34CC(CO)(CO3)C4c3nnn(C)n3)nc12 (some centres unmarked) [Compound 570, (5-(2-methyl-2 h-tetrazol-5-yl)-1-(8-methyl-6-((r)-3-methyl-3-phenylpyrrolidin-1-yl)-[1,2,4]triazolo[1,5-a]pyridin-2-yl)-2-oxabicyclo[2.1.1]hexan-4-yl)methanol] | ***** (>2.5° C.=*****)
Cc1cc(N2CC[C@](C)(c3ccccc3)C2)cn2nc(C(=O)NC3(CO)CCCN(c4cccc(C(=O)O)n4)C3)nc12 (stereo partly drawn) [Compound 682, 6-[3-(hydroxymethyl)-3-[[8-methyl-6-[(3R)-3-methyl-3-phenyl-pyrrolidin-1-yl]-[1,2,4]triazolo[1,5-a]pyridine-2-carbonyl]amino]-1-piperidyl]pyridine-2-carboxylic acid] | ***** (>2.5° C.=*****)
